Experimental data: patent US8507545B2, “Cytotoxic T cell activator comprising EP4 agonist” (National University Corporation, Hamamatsu University …, priority 2007, dated 2013)

Assays:
TRP-2-specific CTLs = experiment: Activation of cytotoxic T cells in cervical lymph nodes after tape stripping (TRP-2 tetramer flow cytometry); format: in vivo, C57BL/6(B6) mice; details: for Ratio of TRP-2-specific CTLs: Example 1(1), cervical lymph nodes one week after application, relative to total mononucleocytes as 100
Protocol: (§1) The corneal layers of the auricles of C57BL/6(B6) mice were destroyed by repeating a stripping procedure using an adhesive tape in 10 cycles, and an antigen peptide or EP4 agonist was applied as a test substance. The antigen peptide used was a melanoma-specific antigen peptide (Accord K.K. Peptide Business Department; hereinafter abbreviated TRP-2) in solution in 70% ethanol; 10 μg was applied to one side of each auricle. The EP4 agonist used was 11α,15α,-dihydroxy-9-oxo-16-(3-methoxymethylphenyl)-17,18,19,20-tetranol-3,7-dithiaprost-13E-enoic acid (hereinafter abbreviated Compound A-(1)) in solution in a mixed solvent of acetone:olive oil=10:1; 20 μL of 100 μM solution was applied to one side of each auricle. One week after application of the test substance, the cervical lymph nodes were removed. The frequency of TRP-2-specific CTLs was determined relative to the total number of mononucleocytes in the cervical lymph nodes as 100 by a flowcytometric analysis (FACScaliber; Becton, Dickinson and Company.) with a tetramer (Medical & Biological Laboratories Co., Ltd.). Four experimental groups were established: (1) a group undergoing tape stripping (hereinafter abbreviated TS) alone, (2) a group undergoing TS followed by application of TRP-2, (3) a group undergoing TS followed by application of Compound A-(1), and (4) a group undergoing TS followed by application of TRP-2 and Compound A-(1).
Note that the melanoma-specific antigen peptide TRP-2 was synthesized on the basis of a partial sequence described in the aforementioned Non-patent Document 1 (SEQ ID NO. 1) (Accord K.K. Peptide Business Department).
The same procedures as Example 1(1) were followed except that the EP4 agonists used were 4-[(2-{(2R)-2-[(1E,3S)-4-(4-fluorophenyl)-3-hydroxybut-1-enyl]-5-oxopyrrolidin-1-yl}ethyl)sulfanyl]butanoic acid (hereinafter abbreviated Compound L-(1)) and 4-{[2-((1R,2R,3R)-3-hydroxy-2-{(1E,3S)-3-hydroxy-4-[3-(methoxymethyl)phenyl]but-1-enyl}-5-oxocyclopentyl)ethyl]sulfanyl}butanoic acid (hereinafter abbreviated Compound M-(1)); the action of each compound to activate cytotoxic T cells was evaluated. Four experimental groups were established: (1) a group undergoing TS alone, (2) a group undergoing TS followed by application of TRP-2, (3) a group undergoing TS followed by application of TRP-2 and Compound L-(1), and (4) a group undergoing TS followed by application of TRP-2 and Compound M-(1).

HSVgpB-specific CTLs = experiment: Activation of cytotoxic T cells in cervical lymph nodes after tape stripping (HSVgpB pentamer flow cytometry); format: in vivo, C57BL/6(B6) mice; details: Example 1(3), TS followed by application of HSVgpB and the EP4 agonist
Protocol: as §1
The same procedures as Example 1(1) were followed except that the antigen peptide used was the herpes simplex virus-specific antigen HSV glycoprotein B (hereinafter abbreviated HSVgpB), and that a flowcytometric analysis with a pentamer (ProImmune Company) was performed, and the action of each compound to activate cytotoxic T cells was evaluated. Five experimental groups were established: (1) a group undergoing TS alone, (2) a group undergoing TS followed by application of HSVgpB, (3) a group undergoing TS followed by application of HSVgpB and Compound A-(1), (4) a group undergoing TS followed by application of HSVgpB and Compound L-(1), and (5) a group undergoing TS followed by application of HSVgpB and Compound M-(1).
Note that the herpes simplex virus-specific antigen peptide HSVgpB was synthesized on the basis of the partial sequence shown by SEQ ID NO. 2 (Virology, Vol. 195, pp. 62-70, (1993)) (ProImmune Company).

B16 melanoma cells = experiment: Melanoma growth suppressing action; format: in vivo, B6 mouse; details: for tumor diameter compared with the experimental group (1): FIG. 1
Protocol: The corneal layer was removed from the right auricle of each B6 mouse by TS in the same manner as Example 1, and test substances (TRP-2 and Compound A-(1)) were applied there; 2 weeks later, the left auricle was treated in the same manner. The test substances applied to both ears were used in the same combination; TRP-2 was applied at 10 μg for one side of each auricle, and Compound A-(1) was applied at 20 μl, of 100 μM solution for one side of each auricle. Four days after the above-described treatment, each mouse received 2×10^5 B16 melanoma cells (RIKEN's Cell Bank) by subcutaneous transplantation, and examined for tumor growth. Experimental groups were established as in Example 1(1) (5 animals in each group).
Tumor diameter (mm), as an index of tumor growth, was measured in each group at various days after inoculation of B16 melanoma cells; the results are shown in FIG. 1.

[1] = TS followed by application of Compound A-(1) alone, experimental group (3)
[2] = TS followed by application of TRP-2 and Compound A-(1), experimental group (4)

SMILES: COCc1cccc(C[C@H](O)/C=C/[C@H]2[C@H](O)CC(=O)[C@@H]2SCCCSCC(=O)O)c1 [Compound A-(1), 11α,15α,-dihydroxy-9-oxo-16-(3-methoxymethylphenyl)-17,18,19,20-tetranol-3,7-dithiaprost-13E-enoic acid]
- Ratio of TRP-2-specific CTLs (TRP-2-specific CTLs; TS followed by application of TRP-2 and Compound A-(1)): 0.63
- Ratio of TRP-2-specific CTLs (TRP-2-specific CTLs; TS followed by application of the test substance alone): 0.55
- ratio of TRP-2-specific CTLs in cervical lymph nodes compared with the group undergoing TS alone (TRP-2-specific CTLs; TS followed by application of Compound A-(1)): increased
- Ratio of HSVgpB-specific CTLs (HSVgpB-specific CTLs): 0.41
- tumor growth rates (B16 melanoma cells; [1]): decreased
- tumor diameter compared with the experimental group (1) (B16 melanoma cells; [1]): smaller
- tumor growth rates (B16 melanoma cells; [2]): decreased
- take of B16 melanoma cells (B16 melanoma cells; TS followed by application of TRP-2 and Compound A-(1), experimental group (4), 5 animals): did not take in any animals
- tumor diameter compared with the experimental group (1) (B16 melanoma cells; [2]): smaller
